Results from PMC10976095 (Vaccines, 2024).
Where a SMILES comes first, the peptide text is derived from it.

Legend:
[1] = system: Mafa-A63:02 MHC class I molecules; type: binding, Macaca fascicularis
[2] = target: HLA-B*07:02 (Homo sapiens, UniProt P01889); assay: biochemical; type: binding
[3] = target: HLA-A*03:01 (Homo sapiens, UniProt P04439); assay: biochemical; type: binding
[4] = target: HLA-A*30:01 (Homo sapiens, UniProt P04439, D140H/D185E/E176W/F33S/G80R/H175R/K168Q/R138E/R41S); assay: biochemical; type: binding
[5] = target: HLA-B*08:01 (Homo sapiens, UniProt P01889, A93T/A95T/D138N/E176V/E187T/K202T/Q94N/R180D/S35A/V36M/Y33D/Y91F); assay: biochemical; type: binding
[6] = target: HLA-A*24:02 (Homo sapiens, UniProt P04439, D101N/D140Y/D185E/E176V/E190D/F33S/G103R/G107R/I119L/I121M/I306V/K335N/L105A/L180Q/L300P/N151K/N90K/Q86E/Q94H/R106L/R138H/R89G/T104I/T345S/V100E/W191G/Y123F); assay: biochemical; type: binding
[7] = target: HLA-A*02:01 (Homo sapiens, UniProt P04439, D140Y/D185E/D98H/E176V/E277Q/G131W/G231S/I119V/I121R/I166T/I218V/L300P/L318F/N151K/N90K/P208A/P217A/Q86G/Q94H/R138H/R169H/T345S); assay: biochemical; type: binding
[8] = target: HLA-A*02:06 (Homo sapiens, UniProt P04439, D140Y/D185E/D98H/E176V/E277Q/F33Y/G131W/G231S/I119V/I121R/I166T/I218V/L300P/L318F/N151K/N90K/P208A/P217A/Q86G/Q94H/R138H/R169H/T345S); assay: biochemical; type: binding
[9] = target: HLA-A*02:03 (Homo sapiens, UniProt P04439, A173T/D140Y/D185E/D98H/E277Q/G131W/G231S/I119V/I121R/I166T/I218V/L180W/L300P/L318F/N151K/N90K/P208A/P217A/Q86G/Q94H/R138H/R169H/T345S); assay: biochemical; type: binding
[10] = target: HLA-A*68:02 (Homo sapiens, UniProt P04439, A269V/D140Y/D185E/E176V/E277Q/E87N/F33Y/G231S/I121R/I166T/I218V/L180W/L300P/L318F/N151K/P208A/P217A/Q86R/R138H/R169H/S129P/T345S/V36M); assay: biochemical; type: binding
[11] = target: HLA-A*32:01 (Homo sapiens, UniProt P04439, A270S/D101S/D185E/E176V/E277Q/F133L/G103R/G107R/G231S/H175R/I121M/I218V/I322F/K168Q/L105A/L300P/L318F/M331R/P208A/P217A/Q94H/R106L/R138Q/S129P/T104I/T323A/T345S/V100E/V321M/V358M); assay: biochemical; type: binding
[12] = target: HLA-A*23:01 (Homo sapiens, UniProt P04439, D101N/D140Y/D185E/E176V/E190D/F33S/G103R/G107R/H175R/I119L/I121M/I306V/K168Q/K335N/L105A/L300P/N151K/N90K/P307H/Q86E/Q94H/R106L/R138H/R89G/T104I/T345S/V100E/W191G/Y123F); assay: biochemical; type: binding
[13] = target: HLA-B*15:01 (Homo sapiens, UniProt P01889, A329T/A93T/A95T/C349S/D201E/D98Y/E187L/E204Q/E69M/E70A/K202T/N87E/Q94N/R155S/R180W/S121R/S35A/S48A/V306I/V36M/Y140S/Y91S); assay: biochemical; type: binding
[14] = target: HLA-A*30:02 (Homo sapiens, UniProt P04439, D101N/D140H/D185E/E176R/F33S/G80R/H175R/K168Q/Q94H/R138E/R41S/V100E); assay: biochemical; type: binding
[15] = target: HLA-B*44:02 (Homo sapiens, UniProt P01889, A223V/A65T/A93T/A95T/D201E/D98Y/E176V/E187L/E204Q/E69K/G107R/H137Y/K202T/L105A/L119I/N104T/N87E/Q56L/Q94N/R106L/R155S/R180D/S101N/S121R/S35A/S48T/T118I/V36M/W191S/Y140D/Y91S); assay: biochemical; type: binding
[16] = target: HLA-B*40:01 (Homo sapiens, UniProt P01889, A65T/A93T/A95T/D138N/D98Y/E176V/E69K/N87E/Q56L/Q94N/R180L/S121R/S35A/S48T/T167S/V36M/W171L/Y33H/Y91S); assay: biochemical; type: binding
[17] = target: HLA-B*27:05 (Homo sapiens, UniProt P01889, D138H/D201E/E176V/E204Q/G107R/H137Y/K202T/N104T/N87E/Q56L/Q94K/R106L/R155S/R180L/S101D/S121N/S48T/Y140D/Y33H/Y91C); assay: biochemical; type: binding

RPKVPLRTM
score on the t-SNE T2 axis (Mafa-A063 binding affinity and stability) [1]: scored high

HPAQTSQW
score on the t-SNE T2 axis (Mafa-A063 binding affinity and stability) [1]: scored high

CC[C@H](C)[C@H](NC(=O)[C@H](C)NC(=O)[C@H](CO)NC(=O)[C@H](CC(C)C)NC(=O)[C@H](CCC(N)=O)NC(=O)[C@@H]1CCCN1C(=O)[C@H](Cc1ccc(O)cc1)NC(=O)[C@@H](N)CC(C)C)C(=O)N[C@@H](C)C(=O)N[C@@H](CC(C)C)C(=O)O [LYPQLSAIAL, reference compound] (H-LYPQLSAIAL-OH)
IC50 [2]: 134 nM

CC[C@H](C)[C@H](NC(=O)[C@H](Cc1ccccc1)NC(=O)[C@H](CCC(=O)O)NC(=O)[C@H](CC(C)C)NC(=O)[C@@H](NC(=O)[C@@H](N)[C@@H](C)O)C(C)C)C(=O)N[C@@H](CC(C)C)C(=O)N[C@@H](CCC(N)=O)C(=O)N[C@@H](CCCCN)C(=O)O (H-TVLEFILQK-OH)
IC50 [3]: 19 nM
IC50 [4]: 365 nM

CC(C)C[C@H](NC(=O)[C@H](CC(N)=O)NC(=O)[C@H](CC(C)C)NC(=O)[C@@H](NC(=O)[C@H](CCCNC(=N)N)NC(=O)[C@H](C)NC(=O)[C@H](Cc1ccccc1)NC(=O)[C@@H]1CCCN1C(=O)[C@H](C)N)C(C)C)C(=O)O [AL9] (H-APFARVLNL-OH)
IC50 [5]: 67 nM
IC50 [2]: 0.21 nM

CC[C@H](C)[C@H](NC(=O)[C@H](CC(C)C)NC(=O)[C@@H]1CCCN1C(=O)[C@H](CO)NC(=O)[C@H](Cc1ccc(O)cc1)NC(=O)[C@@H](N)Cc1c[nH]cn1)C(=O)N[C@@H](CC(C)C)C(=O)N[C@@H](C)C(=O)N[C@@H](CC(C)C)C(=O)O [HL9] (H-HYSPLILAL-OH)
IC50 [6]: 64 nM

CC(C)C[C@H](NC(=O)[C@H](Cc1ccccc1)NC(=O)[C@H](CC(C)C)NC(=O)[C@H](CO)NC(=O)[C@H](CS)NC(=O)[C@H](Cc1ccccc1)NC(=O)[C@H](CO)NC(=O)[C@H](CC(C)C)NC(=O)[C@@H](N)Cc1ccccc1)C(=O)O [reference compound] (H-FLSFCSLFL-OH)
IC50 [7]: 1.8 nM
IC50 [8]: 121 nM
IC50 [9]: 29 nM

CC[C@H](C)[C@H](NC(=O)[C@H](C)NC(=O)[C@H](CO)NC(=O)[C@H](CC(C)C)NC(=O)[C@H](CCC(N)=O)NC(=O)[C@@H]1CCCN1C(=O)[C@H](Cc1ccc(O)cc1)NC(=O)[C@H](CC(C)C)NC(=O)CN)C(=O)O (H-GLYPQLSAI-OH)
IC50 [7]: 5.9 nM
IC50 [8]: 6.9 nM
IC50 [9]: 1.4 nM

GPRKPIKCW
score on the t-SNE T2 axis (Mafa-A063 binding affinity and stability) [1]: scored high

CC[C@H](C)[C@H](NC(=O)[C@H](C)NC(=O)[C@H](CO)NC(=O)[C@H](CC(C)C)NC(=O)[C@@H](N)CCC(N)=O)C(=O)N[C@@H](C)C(=O)N[C@@H](CC(C)C)C(=O)NCC(=O)N[C@H](C(=O)O)C(C)C (H-QLSAIALGV-OH)
IC50 [10]: 11 nM
IC50 [7]: 3.9 nM
IC50 [8]: 12 nM
IC50 [9]: 4.4 nM
IC50 [11]: 81 nM

CC(C)C[C@H](NC(=O)[C@H](CO)NC(=O)[C@H](CS)NC(=O)[C@H](Cc1ccccc1)NC(=O)[C@H](CO)NC(=O)[C@H](CC(C)C)NC(=O)[C@H](Cc1ccccc1)NC(=O)[C@@H](N)CC(C)C)C(=O)N[C@@H](Cc1ccccc1)C(=O)O [reference compound] (H-LFLSFCSLF-OH)
IC50 [12]: 33 nM
IC50 [6]: 633 nM

CC[C@H](C)[C@H](NC(=O)[C@@H](N)CC(C)C)C(=O)N[C@H](C(=O)N[C@@H](CCCCN)C(=O)N[C@H](C(=O)N[C@H](C(=O)N[C@@H](CC(C)C)C(=O)N[C@@H](CCC(=O)O)C(=O)N[C@@H](Cc1ccccc1)C(=O)O)C(C)C)[C@@H](C)O)C(C)C (H-LIVKTVLEF-OH)
IC50 [13]: 0.8 nM
IC50 [12]: 109 nM

CC(C)[C@H](NC(=O)[C@H](CCC(=O)O)NC(=O)[C@H](CC(N)=O)NC(=O)[C@H](CCCCN)NC(=O)[C@@H](NC(=O)[C@@H](N)CCCCN)C(C)C)C(=O)N[C@@H](C)C(=O)N[C@@H](CO)C(=O)N[C@@H](Cc1ccccc1)C(=O)O [KF9] (H-KVKNEVASF-OH)
IC50 [13]: 5.6 nM
IC50 [11]: 2.9 nM
IC50 [14]: 158 nM

CC(C)[C@H](NC(=O)[C@H](CCCNC(=N)N)NC(=O)[C@H](C)NC(=O)[C@H](Cc1ccccc1)NC(=O)[C@@H]1CCCN1C(=O)[C@H](C)NC(=O)[C@H](Cc1ccc(O)cc1)NC(=O)[C@H](CCC(=O)O)NC(=O)CN)C(=O)O (H-GEYAPFARV-OH)
IC50 [15]: 214 nM
IC50 [16]: 107 nM

CC[C@H](C)[C@H](NC(=O)[C@H](CC(C)C)NC(=O)[C@H](CC(C)C)NC(=O)CNC(=O)[C@H](CO)NC(=O)[C@H](Cc1ccccc1)NC(=O)[C@H](CCCNC(=N)N)NC(=O)[C@@H](NC(=O)[C@@H](N)CCC(N)=O)[C@@H](C)O)C(=O)N[C@H](C(=O)O)C(C)C (H-QTRFSGLLIV-OH)
IC50 [13]: 4680 nM
IC50 [4]: 421 nM
IC50 [17]: 533 nM

CC[C@H](C)[C@H](NC(=O)[C@H](CC(C)C)NC(=O)[C@@H](N)CC(C)C)C(=O)N[C@H](C(=O)N[C@@H](CCCCN)C(=O)N[C@H](C(=O)N[C@H](C(=O)N[C@@H](CC(C)C)C(=O)O)C(C)C)[C@@H](C)O)C(C)C [reference compound] (H-LLIVKTVL-OH)
IC50 [5]: 6.1 nM

CC(C)C[C@H](NC(=O)[C@H](CCC(N)=O)NC(=O)[C@@H]1CCCN1C(=O)[C@H](Cc1ccc(O)cc1)NC(=O)[C@H](CC(C)C)NC(=O)CNC(=O)[C@H](Cc1c[nH]cn1)NC(=O)[C@H](CCC(=O)O)NC(=O)[C@@H](N)CC(C)C)C(=O)O (H-LEHGLYPQL-OH)
IC50 [15]: 3.4 nM
IC50 [16]: 14 nM
